Data published in patent publication US10494405B2, “Methods and compositions for the treatment of arthritis” (THE REGENTS OF THE UNIVERSITY OF MICHIGAN, priority 2015, dated 2019).
Numbered stars: 1 amine (or outer) side, 2 acyl side, 3 side chain; on linkers, the order of the positions; unused ones are H or OH. Bridge positions count the residues as written; N and C are the ends. Square brackets hold non-standard residues; d marks the D form. Peptide text beside a SMILES is read from it. CO = O=C([*:1])[*:2]; Nlys = NCCCCNCC(=O)O

Legend:
[1] = tested on: murine pre-OC cell line RAW 264.7; experiment: In vitro osteoclastogenesis, mouse cells (RAW 264.7); format: cell-based
Text: In vitro osteoclastogenesis of murine pre-OC cell line RAW 264.7 in the presence of different doses of BK2.

DBA/1 mice with CIA = experiment: Collagen-induced arthritis (CIA) in DBA/1 mice; format: in vivo, mouse
Experimental: A. DBA/1 mice with CIA received weekly ip doses of BK2, 446 pg/gm, or PBS (black) starting on day −1 relative to day of CIA induction, and joint swelling was recorded. N=10 per group. B. DBA/1 mice with CIA received a total of 4 weekly ip doses of BK2, 446 pg/gm, or PBS (black) starting at day 20 relative to day of CIA induction, at the time of arthritis onset, and joint swelling was recorded. Arrows indicate the treatment days. N=10 per group. C. DBA/1 mice with CIA received weekly sq doses of BK2446 pg/gm, or PBS (black) starting at day −1 relative to day of CIA induction, and joint swelling was recorded. N=10 per group. […] E. DBA/1 mice with CIA received a total of 4 weekly sq doses of BK2, 446 pg/gm, or PBS (black) starting at day 20 relative to day of CIA induction, at the time of arthritis onset, and joint swelling was recorded. Arrows indicate the treatment days. N=10 per group.

human cells = experiment: In vitro osteoclastogenesis, human cells; format: cell-based
SE-activated signaling = experiment: Inhibition of SE-activated signaling in vitro; format: cell-based; settings: read-out: IC50, inhibitor of SE-activated signaling

## C[C@H](NC(=O)CN1CCCCNC(=O)NCCCCN(C(=O)[C@@H](N)Cc2c[nH]c3ccccc23)CC(=O)N[C@@H](CC(=O)O)C(=O)N[C@@H](CCCCN)C(=O)N[C@@H](CO)C1=O)C(N)=O [BK2, Trp-c[Gly(4-aminobutyl)-Asp-Lys-Ser-Gly(4-aminobutyl)]-Ala-NH2] (H-W[Nlys]DKS[Nlys]A-NH2; linker 2-6 via CO)
[1]
  IC50 of anti-osteoclastogenic effect in vitro: pM-range
DBA/1 mice with CIA; CIA mice
  Inhibition of bone destruction in vivo: inhibition effect
  Inhibition of osteoclastogenesis in vivo: inhibition effect
DBA/1 mice with CIA; DBA/1 mice, weekly ip or sq 446 pg/gm, from day -1 or day 20
  Inhibition effect on CIA (joint swelling): highly potent (picogram-range doses) inhibition effect
DBA/1 mice with CIA; FIG. 3D: weekly sq 446 pg/gm starting day -1
  Radiological scores (bone destruction): protective effect on bone destruction
DBA/1 mice with CIA; FIG. 3F: 4 weekly sq doses 446 pg/gm starting day 20 (arthritis onset)
  Radiological scores (bone destruction): protective effect on bone destruction
Human cells
  IC50 of anti-osteoclastogenic effect in vitro: pM-range
SE-activated signaling
  IC50: ~10 mM
